Source: patent publication US20140213604A1, “PROTEIN KINASE C AS A TARGET FOR THE TREATMENT OF RESPIRATORY SYNCYTIAL VIRUS” (priority 2002, published 2014)
Read-outs that look alike come from different tables or passages of the source. Where a SMILES comes first, the peptide text is derived from it. The star is where a group is joined. Myristoyl = CCCCCCCCCCCCCC(=O)*

What was measured:
[1] = test system: RSV infection of NHBE cells; experiment: RSV infection of NHBE cells treated with signaling inhibitors, FITC anti-RSV mab staining and cell counting; type: cell-based, respiratory syncytial virus (RSV); details: inhibitor 2 h before and 48 h after RSV, AG 490 50 μM, PD98059 80 μM, RO318220 3 μM, Wortmannin 300 nM
Procedure: NHBE cells were treated with different inhibitors for 2 hours at concentration as: AG 490 (50 μM), PD98059 (80 μM), RO318220 (3 μM), and Wortmannin (300 nM). DMSO was used as a mock control. The inhibitors were removed and the cells were infected with RSV for 2 hours. After the RSV was removed, the growth medium with the same concentration of inhibitors was added to the cells for 48 hours. The cells were rinsed with PBS prior to staining with FITC-labeled Anti-RSV monoclonal antibody (mab) (CHEMICON, Temecula, Calif.). The total cells and RSV positive cells were counted randomly from 15 to 20 different spots.
To determine if different signaling molecules related to the ERK pathway are required for a successful RSV infection, primary NHBE cells were exposed to various inhibitors previously to being infected with a sucrose-purified RSV preparation. […] Also, other PKC isoforms are activated later during the infection, which could potentially play a role in the late phase of ERK activation (Monick, M. et al., J Immunol, 166(4):2681-2687, 2001).

[2] = test system: RSV infection of NHBE cells; experiment: RSV infection of NHBE cells pre-treated with PKC inhibitors, single cell immunofluorescence assay; type: cell-based, respiratory syncytial virus (RSV); details: for number of infected cells, dose dependence: inhibitor 30 min before infection; for IC50: 16 h, read-out: concentration at which 50% inhibition of infected cells was reached

N#C/C(=C/c1ccc(O)c(O)c1)C(=O)NCc1ccccc1 [AG490]
number of RSV infected cells [1]: significant reduction
number of RSV infected cells ([1]; listed as AG 490): substantially decrease

COc1ccc2c(c[n+](C)c3c4cc5c(cc4ccc23)OCO5)c1OC [Chelerythrine]
number of infected cells, dose dependence ([2]; NHBE cells, RSV 1 MOI): reduced in a dose-dependent manner
IC50 ([2]; human respiratory syncytial virus, NHBE): 7.5 µM

CCCCCCCCCCCCCC(=O)N[C@@H](Cc1ccccc1)C(=O)N[C@@H](C)C(=O)N[C@@H](CCCNC(=N)N)C(=O)N[C@@H](CCCCN)C(=O)NCC(=O)N[C@@H](C)C(=O)N[C@@H](CC(C)C)C(=O)N[C@@H](CCCNC(=N)N)C(=O)N[C@@H](CCC(N)=O)C(N)=O [N-Myr-Phe-Ala-Arg-Lys-Gly-Ala-Leu-Arg-Gln] (Myristoyl-FARKGALRQ-NH2; N-terminus and C-terminus assumed)
solubility in water: soluble in water

COc1cccc(-c2cc(=O)c3ccccc3o2)c1N [PD98059]
number of RSV infected cells [1]: significant reduction

Cn1cc(C2=C(c3cn(CCCSC(=N)N)c4ccccc34)C(=O)NC2=O)c2ccccc21 [Ro318220]
number of RSV infected cells [1]: significant reduction
number of RSV infected cells ([1]; listed as RO318220): substantially decrease

Calphostin C
IC50 ([2]; NHBE cells, RSV 1 MOI): 0.375 µM
number of infected cells, dose dependence ([2]; NHBE cells, RSV 1 MOI): reduced in a dose-dependent manner
